According to PubChem BioAssay AID330 (DTP/NCI, 2004):
Several values for one entry are separate records, joined by “and”; a condition that tells them apart may be missing. Equal entries are not always repeated. Inconclusive results and toxic doses are left out.

System: P388 leukemia ip, CD2F1 mice, survival T/C
Experiment: NCI In Vivo Anticancer Drug Screen. Data for tumor model P388 Leukemia (intraperitoneal) in CD2F1 (CDF1) mice
Conditions: endpoint: median survival time, higher = longer survival
Outline: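 Mice carrying the transplanted tumor received test compound or vehicle. Survival was recorded in each group, and the value is the treated-group measurement divided by that of the vehicle-treated control group.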

[1] = dose: 50.0 mg/kg/injection, schedule: Q01DX005 (ip), vehicle: Klucel (hydroxypropylcellulose) (HPC)
[2] = dose: 100.0 mg/kg/injection, schedule: Q01DX005 (ip), vehicle: Klucel (hydroxypropylcellulose) (HPC)
[3] = dose: 50.0 mg/kg/injection, schedule: Q01DX009 (ip), vehicle: Klucel (hydroxypropylcellulose) (HPC)
[4] = dose: 100.0 mg/kg/injection, schedule: Q01DX009 (ip), vehicle: Klucel (hydroxypropylcellulose) (HPC)
[5] = dose: 200.0 mg/kg/injection, schedule: Q01DX009 (ip), vehicle: Klucel (hydroxypropylcellulose) (HPC)
[6] = dose: 60.0 mg/kg/injection, schedule: Q01DX005 (ip), vehicle: Klucel (hydroxypropylcellulose) (HPC)
[7] = dose: 120.0 mg/kg/injection, schedule: Q01DX005 (ip), vehicle: Klucel (hydroxypropylcellulose) (HPC)
[8] = dose: 240.0 mg/kg/injection, schedule: Q01DX005 (ip), vehicle: Klucel (hydroxypropylcellulose) (HPC)
[9] = dose: 50.0 mg/kg/injection, schedule: Q01DX009 (ip), vehicle: saline with Tween-80
[10] = dose: 60.0 mg/kg/injection, schedule: Q01DX005 (ip), vehicle: saline
[11] = dose: 120.0 mg/kg/injection, schedule: Q01DX005 (ip), vehicle: saline
[12] = dose: 240.0 mg/kg/injection, schedule: Q01DX005 (ip), vehicle: saline
[13] = dose: 50.0 mg/kg/injection, schedule: Q01DX009 (ip), vehicle: saline
[14] = dose: 100.0 mg/kg/injection, schedule: Q01DX009 (ip), vehicle: saline
[15] = dose: 200.0 mg/kg/injection, schedule: Q01DX009 (ip), vehicle: saline
[16] = dose: 100.0 mg/kg/injection, schedule: Q01DX009 (ip), vehicle: saline with Tween-80
[17] = dose: 200.0 mg/kg/injection, schedule: Q01DX009 (ip), vehicle: saline with Tween-80
[18] = dose: 60.0 mg/kg/injection, schedule: Q01DX005 (ip), vehicle: saline with Tween-80

For `COc1ccc2c(c1)N(S(=O)(=O)c1ccc(C)cc1)C/C(=C\N1CCN(c3ccccc3)CC1)C2=O`, the T/C [1] was 96 % of control, the T/C [2] was 98 % of control and the T/C (dose: 200.0 mg/kg/injection, schedule: Q01DX005 (ip), vehicle: Klucel (hydroxypropylcellulose) (HPC)) was 91 % of control.
`Cc1ccc(NC(=O)NCCCN2CCOCC2)cc1NC(=O)NCCCN1CCOCC1` was tested, and the T/C [3] was 104 % of control, the T/C [4] was 100 % of control and the T/C [5] was 96 % of control.
`CCC1(O)CC(O)c2c(O)c3c(c(O)c2C1C(=O)OC)C(=O)c1cccc(O)c1C3=O` (stereo not drawn) was tested, and the T/C [6] was 96 % of control, the T/C [7] was 94 % of control and the T/C [8] was 105 % of control.
With `CSC(=S)N/N=C/c1ccccn1` the T/C (dose: 12.5 mg/kg/injection, schedule: Q01DX009 (ip), vehicle: saline with Tween-80) was 100 % of control, the T/C (dose: 25.0 mg/kg/injection, schedule: Q01DX009 (ip), vehicle: saline with Tween-80) was 104 % of control and 109 % of control and the T/C [9] was 113 % of control.
For `CC(=O)Nc1ccc(C(=O)O)c(O)c1.CC(=O)Nc1ccc(C(=O)O)c(O)c1.[Cu]`, the T/C (dose: 6.25 mg/kg/injection, schedule: Q01DX001 (ip), vehicle: saline) was 98 % of control, the T/C (dose: 12.5 mg/kg/injection, schedule: Q01DX001 (ip), vehicle: saline) was 97 % of control and the T/C (dose: 25.0 mg/kg/injection, schedule: Q01DX001 (ip), vehicle: saline) was 94 % of control.
With `CC(C)=NOC(=O)Nc1ccc(F)cc1` the T/C [6] was 93 % of control, the T/C [7] was 103 % of control and the T/C [8] was 106 % of control.
In the case of `CC1(C)N=C(N)N=C(N)N1c1ccc(CCCCc2ccc(S(=O)(=O)F)cc2)c(Cl)c1`, the T/C (dose: 13.2 mg/kg/injection, schedule: Q01DX009 (ip), vehicle: saline) is reported as 154 % of control, the T/C (dose: 20.0 mg/kg/injection, schedule: Q01DX009 (ip), vehicle: saline) is reported as 159 % of control and the T/C (dose: 30.0 mg/kg/injection, schedule: Q01DX009 (ip), vehicle: saline) is reported as 159 % of control. For the same compound, the T/C (dose: 45.0 mg/kg/injection, schedule: Q01DX009 (ip), vehicle: saline) was 186 % of control.
For `CCOC(=O)C(CCC#N)(C(=O)Cc1ccc(OC)c(OC)c1)C(=O)OCC`, the T/C (dose: 25.0 mg/kg/injection, schedule: Q01DX009 (ip), vehicle: other) was 101 % of control, the T/C (dose: 50.0 mg/kg/injection, schedule: Q01DX009 (ip), vehicle: other) was 103 % of control and the T/C (dose: 100.0 mg/kg/injection, schedule: Q01DX009 (ip), vehicle: other) was 106 % of control. The T/C (dose: 200.0 mg/kg/injection, schedule: Q01DX009 (ip), vehicle: other) was 103 % of control and the T/C (dose: 400.0 mg/kg/injection, schedule: Q01DX009 (ip), vehicle: other) was 103 % of control.
In the case of `C/C(C/C(C)=N/C(N)=S)=N\C(N)=S`, the T/C [10] is reported as 100 % of control, the T/C [11] is reported as 95 % of control and the T/C [12] is reported as 100 % of control.
`CN1C(=O)CC(=O)N(c2ccccc2)c2cc(Cl)ccc21` was tested, and the T/C [1] was 103 % of control and the T/C [2] was 97 % of control.
`CC1Cn2c(nc3sc4c(c3c2=O)CCCC4)S1` (stereo not drawn) was tested, and the T/C [3] was 104 % of control, the T/C [4] was 97 % of control and the T/C [5] was 106 % of control.
With `C=C(C)[C@@H]1CC=C(C)[C@H](O)C1` the T/C [13] was 111 % of control, the T/C [14] was 102 % of control and the T/C [15] was 100 % of control.
For `CNCC(OC)c1ccc(O)c(O)c1` (stereo not drawn), the T/C [14] was 104 % of control and 107 % of control and the T/C [15] was 107 % of control and 118 % of control.
For `CC(=O)NC1CC(C)(C)NC(C)(C)C1`, the T/C (dose: 12.5 mg/kg/injection, schedule: Q01DX009 (ip), vehicle: saline) was 100 % of control, the T/C (dose: 25.0 mg/kg/injection, schedule: Q01DX009 (ip), vehicle: saline) was 96 % of control and the T/C [13] was 114 % of control and 88 % of control. The T/C [15] was 95 % of control.
In the case of `COc1cc(Cc2nnc(Nc3ccccc3)[nH]c2=O)cc(OC)c1OC`, the T/C (dose: 100.0 mg/kg/injection, schedule: Q01DX001 (ip), vehicle: Klucel (hydroxypropylcellulose) (HPC)) is reported as 98 % of control, the T/C (dose: 200.0 mg/kg/injection, schedule: Q01DX001 (ip), vehicle: Klucel (hydroxypropylcellulose) (HPC)) is reported as 94 % of control and the T/C (dose: 400.0 mg/kg/injection, schedule: Q01DX001 (ip), vehicle: Klucel (hydroxypropylcellulose) (HPC)) is reported as 98 % of control.
`CCOC(=O)c1c[nH]c2cc(Cl)ccc2c1=O` was tested, and the T/C [9] was 93 % of control, the T/C [16] was 98 % of control and the T/C [17] was 93 % of control.
`Cc1cc2c(c(=O)o1)C(C)CC(c1c(O)cc(C)oc1=O)O2` (stereo not drawn) was tested, and the T/C [18] was 114 % of control, the T/C (dose: 120.0 mg/kg/injection, schedule: Q01DX005 (ip), vehicle: saline with Tween-80) was 108 % of control and the T/C (dose: 240.0 mg/kg/injection, schedule: Q01DX005 (ip), vehicle: saline with Tween-80) was 103 % of control.
`c1cc2nncn2cn1` was tested, and the T/C [3] was 93 % of control, the T/C [4] was 104 % of control and the T/C [5] was 99 % of control.
In the case of `CCCCCCC(=O)CC(SCC)c1ccccc1` (stereo not drawn), the T/C [9] is reported as 106 % of control, the T/C [16] is reported as 113 % of control and the T/C [17] is reported as 114 % of control.
For `Cc1cc(NC(=O)CSCC(=O)O)no1`, the T/C [6] was 98 % of control, the T/C [7] was 101 % of control and the T/C [8] was 94 % of control.
With `O=c1oc2nc(-c3ccccc3)[nH]c(=O)c2c(O)c1Cc1ccccc1` the T/C (dose: 15.0 mg/kg/injection, schedule: Q01DX005 (ip), vehicle: Klucel (hydroxypropylcellulose) (HPC)) was 97 % of control, the T/C (dose: 30.0 mg/kg/injection, schedule: Q01DX005 (ip), vehicle: Klucel (hydroxypropylcellulose) (HPC)) was 98 % of control and the T/C [6] was 95 % of control and 96 % of control.
In the case of `CC(=O)O[C@@H]1[C@@H](O)[C@H]2O[C@@H]3C=C(C)CC[C@]3(CO)[C@]1(C)[C@@]21CO1`, the T/C (dose: 1.25 mg/kg/injection, schedule: Q01DX009 (ip), vehicle: saline with Tween-80) is reported as 110 % of control and 120 % of control, the T/C (dose: 2.5 mg/kg/injection, schedule: Q01DX009 (ip), vehicle: saline with Tween-80) is reported as 118 % of control and 121 % of control and the T/C (dose: 5.0 mg/kg/injection, schedule: Q01DX009 (ip), vehicle: saline with Tween-80) is reported as 120 % of control. The T/C (dose: 20.0 mg/kg/injection, schedule: Q01DX009 (ip), vehicle: saline with Tween-80) was 93 % of control.
In the case of `Cc1nc(N=C(N)N)nc2ccc3ccccc3c12`, the T/C (dose: 3.13 mg/kg/injection, schedule: Q01DX009 (ip), vehicle: Klucel (hydroxypropylcellulose) (HPC)) is reported as 95 % of control, the T/C (dose: 6.25 mg/kg/injection, schedule: Q01DX009 (ip), vehicle: Klucel (hydroxypropylcellulose) (HPC)) is reported as 104 % of control and the T/C (dose: 12.5 mg/kg/injection, schedule: Q01DX009 (ip), vehicle: Klucel (hydroxypropylcellulose) (HPC)) is reported as 93 % of control.
With `CCc1cccc(CC)c1N1C(=O)C(=O)C(C(C)=O)C1=O` (stereo not drawn) the T/C (dose: 25.0 mg/kg/injection, schedule: Q01DX005 (ip), vehicle: saline with Tween-80) was 101 % of control, the T/C (dose: 50.0 mg/kg/injection, schedule: Q01DX005 (ip), vehicle: saline with Tween-80) was 99 % of control and 101 % of control and the T/C (dose: 100.0 mg/kg/injection, schedule: Q01DX005 (ip), vehicle: saline with Tween-80) was 101 % of control. For the same compound, the T/C (dose: 200.0 mg/kg/injection, schedule: Q01DX005 (ip), vehicle: saline with Tween-80) was 89 % of control.
`COC(=O)C1CCCN1` (stereo not drawn) was tested, and the T/C [10] was 105 % of control, the T/C [11] was 111 % of control and the T/C [12] was 104 % of control.
With `Cc1ccc(OP(=O)(Oc2ccc(C)cc2)Oc2ccc(C)cc2)cc1.Cc1ccc(OP(=O)(Oc2ccc(C)cc2)Oc2ccc(C)cc2)cc1.[Cl][Mn][Cl]` the T/C (dose: 100.0 mg/kg/injection, schedule: Q04DX003 (ip), vehicle: Klucel (hydroxypropylcellulose) (HPC)) was 110 % of control, the T/C (dose: 200.0 mg/kg/injection, schedule: Q04DX003 (ip), vehicle: Klucel (hydroxypropylcellulose) (HPC)) was 115 % of control and the T/C (dose: 400.0 mg/kg/injection, schedule: Q04DX003 (ip), vehicle: Klucel (hydroxypropylcellulose) (HPC)) was 114 % of control.
In the case of `COc1cc2c(c3c1c(=O)c1ccccc1n3C)C=C([N+](=O)[O-])C(C)(C)O2`, the T/C (dose: 3.0 mg/kg/injection, schedule: Q01DX005 (ip), vehicle: saline + Tween-80 + alcohol) is reported as 116 % of control, the T/C (dose: 6.0 mg/kg/injection, schedule: Q01DX005 (ip), vehicle: saline + Tween-80 + alcohol) is reported as 116 % of control and the T/C (dose: 12.0 mg/kg/injection, schedule: Q01DX005 (ip), vehicle: saline + Tween-80 + alcohol) is reported as 108 % of control.
With `NCCCCCC(CCN)SCC1OC(n2cnc3c(N)ncnc32)C(O)C1O` (stereo not drawn) the T/C (dose: 15.0 mg/kg/injection, schedule: Q01DX005 (ip), vehicle: saline with Tween-80) was 109 % of control, the T/C (dose: 30.0 mg/kg/injection, schedule: Q01DX005 (ip), vehicle: saline with Tween-80) was 103 % of control and the T/C [18] was 96 % of control.
